Values joined by “and” are separate entries in the source; they are usually repeats but may differ in a detail not shown here. Equal entries are not always repeated. ± gives the expanded uncertainty stated by the source.
Assay: wn = mass fraction of the nth substance listed
Details: Liquid, Pulse-echo method, w2 = 0.49

CC(F)(F)F [1,1,1-trifluoroethane] + FC(F)C(F)(F)F
speed of sound
Details | 265.62 K | 273.14 K | 280.7 K | 288.18 K
940 kPa | – | 500.1 ± 1.3 m/s | – | –
1010 kPa | – | 500.9 ± 1.3 m/s | – | –
1130 kPa | – | 502.3 ± 1.3 m/s | – | 427.1 ± 1.3 m/s
1140 kPa | – | – | 465.9 ± 1.3 m/s | –
1160 kPa | – | – | 466.2 ± 1.3 m/s | –
1190 kPa | – | – | – | 428.3 ± 1.3 m/s
1210 kPa | – | – | 466.5 ± 1.3 m/s | –
1260 kPa | – | 503.8 ± 1.3 m/s | 467.5 ± 1.3 m/s | 429.1 ± 1.3 m/s
1380 kPa | – | 505.3 ± 1.3 m/s | 469.1 ± 1.3 m/s | –
1500 kPa | – | 506.6 ± 1.3 m/s | 471 ± 1.3 m/s | 432.9 ± 1.3 m/s
1630 kPa | – | 508.1 ± 1.3 m/s | 472.4 ± 1.3 m/s | 434.9 ± 1.3 m/s
1750 kPa | – | 509.5 ± 1.3 m/s | 473.9 ± 1.3 m/s | 436.7 ± 1.3 m/s and 436.6 ± 1.3 m/s
2010 kPa | – | 512.5 ± 1.3 m/s | 477.2 ± 1.3 m/s | –
2250 kPa | – | 515.3 ± 1.3 m/s | 480.2 ± 1.3 m/s | –
2510 kPa | – | 518.1 ± 1.3 m/s | 483.5 ± 1.3 m/s | –
2750 kPa | – | 520.9 ± 1.3 m/s | 486.6 ± 1.3 m/s | –
3010 kPa | – | 523.7 ± 1.3 m/s | 489.8 ± 1.3 m/s | –
3500 kPa | – | 529.2 ± 1.3 m/s | 495.6 ± 1.3 m/s | –
4000 kPa | – | 534.4 ± 1.3 m/s | 501.4 ± 1.3 m/s | –
4500 kPa | – | 539.5 ± 1.3 m/s | 507.2 ± 1.3 m/s | –
5000 kPa | – | 544.6 ± 1.3 m/s | 512.8 ± 1.3 m/s | –
6010 kPa | – | 554.2 ± 1.3 m/s | 523.3 ± 1.3 m/s | –
7010 kPa | – | 563.6 ± 1.3 m/s | 533.5 ± 1.3 m/s | –
8000 kPa | – | 572.9 ± 1.3 m/s | 543.1 ± 1.3 m/s | –
9000 kPa | – | 581.6 ± 1.3 m/s | 552.7 ± 1.3 m/s | –
10000 kPa | – | 590.2 ± 1.3 m/s | 561.9 ± 1.3 m/s | –
12000 kPa | – | 606.5 ± 1.3 m/s | 579.4 ± 1.3 m/s | –
14000 kPa | 649.8 ± 1.3 m/s | 622 ± 1.3 m/s | 595.5 ± 1.3 m/s | –
16010 kPa | 663.9 ± 1.3 m/s | 636.6 ± 1.3 m/s | 611 ± 1.3 m/s | –
18000 kPa | 677.1 ± 1.3 m/s | 650.5 ± 1.3 m/s | 625.4 ± 1.3 m/s | –
20000 kPa | 690.1 ± 1.3 m/s | 663.8 ± 1.3 m/s | 639.5 ± 1.3 m/s | –
23000 kPa | 708.2 ± 1.3 m/s | 683.2 ± 1.3 m/s | 659.6 ± 1.3 m/s | –
26000 kPa | 725.7 ± 1.3 m/s | 701.6 ± 1.3 m/s | 678.2 ± 1.3 m/s | –
29010 kPa | 742.6 ± 1.3 m/s | 718.9 ± 1.3 m/s | 696.3 ± 1.3 m/s | –
32000 kPa | 758.5 ± 1.3 m/s | 735.3 ± 1.3 m/s | 713.7 ± 1.3 m/s | –
35000 kPa | 773.9 ± 1.3 m/s | 751.1 ± 1.3 m/s | 729.9 ± 1.3 m/s | –
40000 kPa | 798.3 ± 1.3 m/s | 775.8 ± 1.3 m/s | 755.3 ± 1.3 m/s | –
45000 kPa | 821.3 ± 1.3 m/s | 799.7 ± 1.3 m/s | 779.7 ± 1.3 m/s | –
50000 kPa | 843.1 ± 1.3 m/s | 822 ± 1.3 m/s | 802.7 ± 1.3 m/s | –
55000 kPa | 863.8 ± 1.3 m/s | 843.4 ± 1.3 m/s | 824.2 ± 1.3 m/s | –
60000 kPa | 883.7 ± 1.3 m/s | 863.4 ± 1.3 m/s | 845.1 ± 1.3 m/s | –
65000 kPa | 902.8 ± 1.3 m/s | 882.8 ± 1.3 m/s | 864.9 ± 1.3 m/s | –
